Assay results taken from patent US8680272B2, “3-arylethynyl substituted quinazolinone compounds” (Council of Scientific & Industrial Research, priority 2011, dated 2014).

Legend:
OVCAR-5 = assay: Anticancer activity, SRB assay, ovarian cell line OVCAR-5; assay type: cell-based, human; conditions: Homo sapiens; Ovarian OVCAR-5; 48 h continuous drug exposure; —^b means GI50 values not attained at the concentrations used; read-out: Growth Inhibition GI50
Description: (§1) Some of biological activity studies were carried out at the National Cancer Institute (NCI), Maryland, USA.
(§2) The compounds were evaluated for anticancer activity against sixty human cancer cells derived from nine cancer types (leukemia cell line, non-small-cell lung cell line, colon cell line, CNS cell line, melanoma cell line, ovarian cell line, prostate cell line, renal cell line and breast cancer cell line) as shown in Table 1. For each compound, dose response curves for each cell line were measured at a minimum of five concentrations at 10 fold dilutions. A protocol of 48 h continuous drug exposure was used and a sulforhodamine B (SRB) protein assay was used to estimate cell viability or growth.

MOLT-4 = assay: Anticancer activity, SRB assay, leukemia cell line MOLT-4; assay type: cell-based; conditions: Homo sapiens; Leukemia MOLT-4; 48 h continuous drug exposure; read-out: Growth Inhibition GI50
Description: as §1, §2

A498 = assay: Anticancer activity, SRB assay, renal cell line A498; assay type: cell-based, human; conditions: Homo sapiens, 48 h continuous drug exposure, —^b means GI50 values not attained at the concentrations used, read-out: Growth Inhibition GI50
Description: as §1, §2

KM12 = assay: Anticancer activity, SRB assay, colon cell line KM12; assay type: cell-based; conditions: Homo sapiens, 48 h continuous drug exposure, read-out: Growth Inhibition GI50
Description: as §1, §2

786-0 = assay: Anticancer activity, SRB assay, renal cell line 786-0; assay type: cell-based, human; conditions: Homo sapiens; Renal 786-0; 48 h continuous drug exposure; —^b means GI50 values not attained at the concentrations used; read-out: Growth Inhibition GI50
Description: as §1, §2

OVCAR-4 = assay: Anticancer activity, SRB assay, ovarian cell line OVCAR-4; assay type: cell-based, human; conditions: Homo sapiens; Ovarian OVCAR-4; 48 h continuous drug exposure; —^b means GI50 values not attained at the concentrations used; read-out: Growth Inhibition GI50
Description: as §1, §2

HL-60(TB) = assay: Anticancer activity, SRB assay, leukemia cell line HL-60(TB); assay type: cell-based; conditions: Homo sapiens; Leukemia HL-60(TB); 48 h continuous drug exposure; read-out: Growth Inhibition GI50
Description: as §1, §2

M14 = assay: Anticancer activity, SRB assay, melanoma cell line M14; assay type: cell-based; conditions: Homo sapiens, 48 h continuous drug exposure, read-out: Growth Inhibition GI50
Description: as §1, §2

SK-MEL-5 = assay: Anticancer activity, SRB assay, melanoma cell line SK-MEL-5; assay type: cell-based; conditions: Homo sapiens; Melanoma SK-MEL-5; 48 h continuous drug exposure; read-out: Growth Inhibition GI50
Description: as §1, §2

UACC-257 = assay: Anticancer activity, SRB assay, melanoma cell line UACC-257; assay type: cell-based; conditions: Homo sapiens; Melanoma UACC-257; 48 h continuous drug exposure; read-out: Growth Inhibition GI50
Description: as §1, §2

[1] = system: six leukemia cancer cell lines (CCRF-CEM, HL-60, K-562, MOLT-4, SR and RPMI-8226); assay: Anticancer activity, SRB assay, leukemia panel; assay type: cell-based, human
Description: as §1, §2

[2] = system: seven ovarian cancer cell lines (IGROV1, OVCAR-3, OVCAR-4, OVCAR-5, OVCAR-8, NCI/ADR-RES and SK-OV-3); assay: Anticancer activity, SRB assay, ovarian panel; assay type: cell-based, human
Description: as §1, §2

NCI-H522 = assay: Anticancer activity, SRB assay, non-small lung cell line NCI-H522; assay type: cell-based, human; conditions: Homo sapiens, NCI-H522; Non-small lung NCl-H522; 48 h continuous drug exposure; —^b means GI50 values not attained at the concentrations used; read-out: Growth Inhibition GI50
Description: as §1, §2

NCI-H322M = assay: Anticancer activity, SRB assay, non-small lung cell line NCI-H322M; assay type: cell-based, human; conditions: Homo sapiens, NCI-H322M; Non-small lung NCl-H322M; 48 h continuous drug exposure; —^b means GI50 values not attained at the concentrations used; read-out: Growth Inhibition GI50
Description: as §1, §2

ACHN = assay: Anticancer activity, SRB assay, renal cell line ACHN; assay type: cell-based, human; conditions: Homo sapiens, 48 h continuous drug exposure, —^b means GI50 values not attained at the concentrations used, read-out: Growth Inhibition GI50
Description: as §1, §2

SNB-19 = assay: Anticancer activity, SRB assay, CNS cell line SNB-19; assay type: cell-based, human; conditions: Homo sapiens; CNS SNB-19; 48 h continuous drug exposure; —^b means GI50 values not attained at the concentrations used; read-out: Growth Inhibition GI50
Description: as §1, §2

OVCAR-3 = assay: Anticancer activity, SRB assay, ovarian cell line OVCAR-3; assay type: cell-based; conditions: Homo sapiens; Ovarian OVCAR-3; 48 h continuous drug exposure; read-out: Growth Inhibition GI50
Description: as §1, §2

T-47D = assay: Anticancer activity, SRB assay, breast cell line T-47D; assay type: cell-based, human; conditions: Homo sapiens, T47D; Breast T-47D; 48 h continuous drug exposure; —^b means GI50 values not attained at the concentrations used; read-out: Growth Inhibition GI50
Description: as §1, §2

CAKI-1 = assay: Anticancer activity, SRB assay, renal cell line CAKI-1; assay type: cell-based; conditions: Homo sapiens; Renal CAKI-1; 48 h continuous drug exposure; read-out: Growth Inhibition GI50
Description: as §1, §2

OVCAR-8 = assay: Anticancer activity, SRB assay, ovarian cell line OVCAR-8; assay type: cell-based, human; conditions: Homo sapiens; Ovarian OVCAR-8; 48 h continuous drug exposure; —^b means GI50 values not attained at the concentrations used; read-out: Growth Inhibition GI50
Description: as §1, §2

COLO 205 = assay: Anticancer activity, SRB assay, colon cell line COLO 205; assay type: cell-based; conditions: Homo sapiens; Colon COLO 205; 48 h continuous drug exposure; read-out: Growth Inhibition GI50
Description: as §1, §2

HCC-2998 = assay: Anticancer activity, SRB assay, colon cell line HCC-2998; assay type: cell-based, human; conditions: Homo sapiens; Colon HCC-2998; 48 h continuous drug exposure; —^b means GI50 values not attained at the concentrations used; read-out: Growth Inhibition GI50
Description: as §1, §2

PC-3 = assay: Anticancer activity, SRB assay, prostate cell line PC-3; assay type: cell-based, human; conditions: Homo sapiens; Prostate PC-3; 48 h continuous drug exposure; —^b means GI50 values not attained at the concentrations used; read-out: Growth Inhibition GI50
Description: as §1, §2

SK-MEL-2 = assay: Anticancer activity, SRB assay, melanoma cell line SK-MEL-2; assay type: cell-based, human; conditions: Homo sapiens; Melanoma SK-MEL-2; 48 h continuous drug exposure; —^b means GI50 values not attained at the concentrations used; read-out: Growth Inhibition GI50
Description: as §1, §2

[3] = Anticancer activity, SRB assay, melanoma panel; assay type: cell-based, human; conditions: Homo sapiens; nine melanoma cancer cell line; exposure period of at least 48 h; read-out: GI50 (range over the panel)
Description: as §1, §2

[4] = system: nine melanoma cancer cell line (LOX IMVI, MALME-3M, M14, MDA-MB-435, SK-MEL-2, SK-MEL-28, SK-MEL-5, UACC-257 and UACC-62); assay: Anticancer activity, SRB assay, melanoma panel; assay type: cell-based, human; conditions: Melanoma
Description: as §1, §2

SW-620 = assay: Anticancer activity, SRB assay, colon cell line SW-620; assay type: cell-based; conditions: Homo sapiens; Colon SW-620; 48 h continuous drug exposure; read-out: Growth Inhibition GI50
Description: as §1, §2

Cc1cc(C#Cc2ccccc2)ccc1-n1c(/C=C/c2cc(O)ccc2O)nc2ccccc2c1=O [Compound 4c, (E)-2-(2,5-Dihydroxystyryl)-3-(2-methyl-4-(phenylethynyl)phenyl)quinazolin-4(3H)-one]
GI50 (OVCAR-5): 1.39 µM
GI50 (MOLT-4): 1.14 µM
GI50 (A498): 0.37 µM
GI50 (KM12): 1.65 µM
GI50 (786-0): 1.74 µM
GI50 (OVCAR-4): 2.4 µM
GI50 (HL-60(TB)): 0.634 µM
GI50 (M14): 1.54 µM
GI50 (SK-MEL-5): 1.35 µM
GI50 (UACC-257): 1.56 µM
GI50 ([1]; Homo sapiens, six leukemia cancer cell lines, exposure period of at least 48 h, read-out: GI50 (range over the panel)): 0.634 to 1.54 µM
mean graph midpoint values (MG_MID) of log10 TGI (Log10TGI50) ([1]; Leukemia, log value of concentration of the compound resulting in total inhibition of net cell growth): −5.38
mean graph midpoint values (MG_MID) of Log10LC50 ([1]; Leukemia, log value of the concentration of compounds leading to 50% net cell death): −4.40
mean graph midpoint values (MG_MID) of Log10GI50 ([1]; Leukemia, log values of concentration in mol/L causing 50% inhibition of net cell growth): −5.94 mol/L
GI50 ([2]; Homo sapiens, seven ovarian cancer cell lines, exposure period of at least 48 h, read-out: GI50 (range over the panel)): 1.39 to 2.45 µM
mean graph midpoint values (MG_MID) of log10 TGI (Log10TGI50) ([2]; Ovarian, log value of concentration of the compound resulting in total inhibition of net cell growth): −5.31
mean graph midpoint values (MG_MID) of Log10LC50 ([2]; Ovarian, log value of the concentration of compounds leading to 50% net cell death): −4.61
mean graph midpoint values (MG_MID) of Log10GI50 ([2]; Ovarian, log values of concentration in mol/L causing 50% inhibition of net cell growth): −5.72 mol/L
GI50 (NCI-H522): 1.29 µM
GI50 (NCI-H322M): 1.62 µM
GI50 (ACHN): 1.44 µM
GI50 (SNB-19): 1.62 µM
GI50 (OVCAR-3): 1.49 µM
GI50 (T-47D): 1.14 µM
GI50 (CAKI-1): 2.15 µM
GI50 (OVCAR-8): 1.94 µM
GI50 (COLO 205): 1.48 µM
GI50 (HCC-2998): 1.36 µM
GI50 (PC-3): 2.19 µM
GI50 (SK-MEL-2): 1.4 µM
GI50 [3]: 1.35 to 1.67 µM
mean graph midpoint values (MG_MID) of log10 TGI (Log10TGI50) ([4]; log value of concentration of the compound resulting in total inhibition of net cell growth): −5.52
mean graph midpoint values (MG_MID) of Log10LC50 ([4]; log value of the concentration of compounds leading to 50% net cell death): −5.22
mean graph midpoint values (MG_MID) of Log10GI50 ([4]; log values of concentration in mol/L causing 50% inhibition of net cell growth): −5.83 mol/L
GI50 (SW-620): 1.71 µM
